How the values were obtained:
Dasatinib = compound: CC1=C(C(=CC=C1)Cl)NC(=O)C2=CN=C(S2)NC3=CC(=NC(=N3)C)N4CCN(CC4)CCO [Dasatinib]; settings: max 2 µM
Method in brief: (§1)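 After 24 hours at 37°C and 5% CO2 in 1536-well plates holding 7.5 μl of DMEM/F12 or RPMI with 10% FBS, cancer cell lines were dosed for 72 hours, with final DMSO typically 0.2%. Viability came from CellTiter-Glo 2.0 luminescence, scaled between the means of blank wells and DMSO wells. A non-linear mixed effects model fitted a two-parameter logistic curve to each dose response to give the single-agent IC50.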

Gemcitabine = compound: Nc1ccn([C@@H]2O[C@H](CO)[C@@H](O)C2(F)F)c(=O)n1 [Gemcitabine]; settings: max 0.3 µM
Method in brief: as §1

Alisertib = compound: COc1cc(Nc2ncc3c(n2)-c2ccc(Cl)cc2C(c2c(F)cccc2OC)=NC3)ccc1C(=O)O [Alisertib]; settings: max 10 µM
Method in brief: as §1

SG3199 = compound: CC1=CN2[C@@H](C1)C=NC3=CC(=C(C=C3C2=O)OC)OCCCCCOC4=C(C=C5C(=C4)N=C[C@@H]6CC(=CN6C5=O)C)OC [SG3199]; settings: max 0.001 µM
Method in brief: as §1

MK-2206 = compound: NC1(c2ccc(-c3nc4ccn5c(=O)[nH]nc5c4cc3-c3ccccc3)cc2)CCC1 [MK-2206]; settings: max 10 µM
Method in brief: as §1

Paclitaxel = compound: CC(=O)O[C@H]1C(=O)[C@@]2(C)[C@H]([C@H](OC(=O)c3ccccc3)[C@]3(O)C[C@H](OC(=O)[C@H](O)[C@@H](NC(=O)c4ccccc4)c4ccccc4)C(C)=C1C3(C)C)[C@]1(OC(C)=O)CO[C@@H]1C[C@@H]2O [Paclitaxel]; settings: max 3 µM
Method in brief: as §1

AZD1390 = compound: CC(C)n1c(=O)n(C)c2cnc3cc(F)c(-c4ccc(OCCCN5CCCCC5)nc4)cc3c21 [AZD1390]; settings: max 0.3 µM
Method in brief: as §1

Olaparib = compound: O=C(c1cc(Cc2n[nH]c(=O)c3ccccc23)ccc1F)N1CCN(C(=O)C2CC2)CC1 [Olaparib]; settings: max 10 µM
Method in brief: as §1

Doxorubicin = compound: COc1cccc2c1C(=O)c1c(O)c3c(c(O)c1C2=O)C[C@@](O)(C(=O)CO)C[C@@H]3O[C@H]1C[C@H](N)[C@H](O)[C@H](C)O1 [Doxorubicin]; settings: max 1 µM
Method in brief: as §1

AZD5991 = compound: Cc1c2c(nn1C)CSCc1cc(n(C)n1)CSc1cc(c3ccccc3c1)OCCCc1c(C(=O)O)n(C)c3c-2c(Cl)ccc13 [AZD5991]; settings: max 1 µM
Method in brief: as §1

Selumetinib = compound: Cn1cnc2c(F)c(Nc3ccc(Br)cc3Cl)c(C(=O)NOCCO)cc21 [Selumetinib]; settings: max 10 µM
Method in brief: as §1

Venetoclax = compound: CC1(C)CCC(CN2CCN(c3ccc(C(=O)NS(=O)(=O)c4ccc(NCC5CCOCC5)c([N+](=O)[O-])c4)c(Oc4cnc5[nH]ccc5c4)c3)CC2)=C(c2ccc(Cl)cc2)C1 [Venetoclax]; settings: max 1 µM
Method in brief: as §1

SN-38 = compound: CCc1c2c(nc3ccc(O)cc13)-c1cc3c(c(=O)n1C2)COC(=O)[C@]3(O)CC [SN-38]; settings: max 0.3 µM
Method in brief: as §1

Gefitinib = compound: COc1cc2ncnc(Nc3ccc(F)c(Cl)c3)c2cc1OCCCN1CCOCC1 [Gefitinib]; settings: max 10 µM
Method in brief: as §1

AZD5153 = compound: COc1nnc2ccc(N3CCC(c4ccc(OCCN5CCN(C)C(=O)[C@H]5C)cc4)CC3)nn12 [AZD5153]; settings: max 1 µM
Method in brief: as §1

[1] = compound: O=C(Nc1ccc2[nH]nc(-c3ccncc3)c2c1)[C@@H]1CCN(CC(=O)N2CCN(c3ccc(-c4ncccn4)cc3)CC2)C1; settings: max 5 µM
Method in brief: as §1

Etoposide = compound: COc1cc([C@@H]2c3cc4c(cc3[C@@H](O[C@@H]3O[C@@H]5CO[C@@H](C)O[C@H]5[C@H](O)[C@H]3O)[C@H]3COC(=O)[C@H]23)OCO4)cc(OC)c1O [Etoposide]; settings: max 10 µM
Method in brief: as §1

Prexasertib = compound: COc1cccc(OCCCN)c1-c1cc(Nc2cnc(C#N)cn2)n[nH]1 [Prexasertib]; settings: max 1 µM
Method in brief: as §1

AZD0156 = compound: CN(C)CCCOc1ccc(-c2ccc3ncc4c(c3c2)n(C2CCOCC2)c(=O)n4C)cn1 [AZD0156]; settings: max 3 µM
Method in brief: as §1

SRA737 = compound: N#Cc1cnc(Nc2cc(NC[C@H]3CNCCO3)c(C(F)(F)F)cn2)cn1 [SRA737]; settings: max 10 µM
Method in brief: as §1

Lapatinib = compound: CS(=O)(=O)CCNCc1ccc(-c2ccc3ncnc(Nc4ccc(OCc5cccc(F)c5)c(Cl)c4)c3c2)o1 [Lapatinib]; settings: max 10 µM
Method in brief: as §1

Taselisib = compound: Cc1nc(-c2cn3c(n2)-c2ccc(-c4cnn(C(C)(C)C(N)=O)c4)cc2OCC3)n(C(C)C)n1 [Taselisib]; settings: max 10 µM
Method in brief: as §1

Trametinib = compound: CC(=O)Nc1cccc(-n2c(=O)n(C3CC3)c(=O)c3c(Nc4ccc(I)cc4F)n(C)c(=O)c(C)c32)c1 [Trametinib]; settings: max 1 µM
Method in brief: as §1

AZD2811 = compound: CCN(CCO)CCCOc1ccc2c(Nc3cc(CC(=O)Nc4cccc(F)c4)[nH]n3)ncnc2c1 [AZD2811]; settings: max 1 µM
Method in brief: as §1

AZD1775 = compound: C=CCn1c(=O)c2cnc(Nc3ccc(N4CCN(C)CC4)cc3)nc2n1-c1cccc(C(C)(C)O)n1 [AZD1775]; settings: max 3 µM
Method in brief: as §1

AZD4320 = compound: CN(CC[C@H](CSC1=CC=CC=C1)NC2=C(C=C(C=C2)S(=O)(=O)NC(=O)C3=CC=C(C=C3)N4CCC(CC4)[C@H](C5=CC=CC=C5C6=CC=C(C=C6)Cl)O)S(=O)(=O)C(F)(F)F)CCO [AZD4320]; settings: max 1 µM
Method in brief: as §1

AZD5363 = compound: C1CN(CCC1(C(=O)N[C@@H](CCO)C2=CC=C(C=C2)Cl)N)C3=NC=NC4=C3C=CN4 [AZD5363]; settings: max 10 µM
Method in brief: as §1

AZD6738 = compound: C[C@@H]1COCCN1C2=NC(=NC(=C2)C3(CC3)[S@](=N)(=O)C)C4=C5C=CNC5=NC=C4 [AZD6738]; settings: max 10 µM
Method in brief: as §1

Carboplatin = compound: C1CC(C1)(C(=O)[O-])C(=O)[O-].N.N.[Pt+2] [Carboplatin]; settings: max 10 µM
Method in brief: as §1

5-Fluorouracil = compound: O=c1[nH]cc(F)c(=O)[nH]1 [5-Fluorouracil]; settings: max 20 µM
Method in brief: as §1

Savolitinib = compound: C[C@@H](c1ccc2nccn2c1)n1nnc2ncc(-c3cnn(C)c3)nc21 [Savolitinib]; settings: max 1 µM
Method in brief: as §1

AZD8186 = compound: C[C@@H](Nc1cc(F)cc(F)c1)c1cc(C(=O)N(C)C)cc2c(=O)cc(N3CCOCC3)oc12 [AZD8186]; settings: max 10 µM
Method in brief: as §1

Crizotinib = compound: C[C@@H](Oc1cc(-c2cnn(C3CCNCC3)c2)cnc1N)c1c(Cl)ccc(F)c1Cl [Crizotinib]; settings: max 10 µM
Method in brief: as §1

Palbociclib = compound: CC(=O)c1c(C)c2cnc(Nc3ccc(N4CCNCC4)cn3)nc2n(C2CCCC2)c1=O [Palbociclib]; settings: max 10 µM
Method in brief: as §1

AZD7648 = compound: Cc1cc2ncnn2cc1Nc1ncc2c(n1)n(C1CCOCC1)c(=O)n2C [AZD7648]; settings: max 10 µM
Method in brief: as §1

| Cell Line | IC50, cell viability 72 h (Dasatinib) [nM] | IC50, cell viability 72 h (Gemcitabine) [nM] | IC50, cell viability 72 h (Alisertib) [nM] | IC50, cell viability 72 h (SG3199) [nM] | IC50, cell viability 72 h (MK-2206) [nM] | IC50, cell viability 72 h (Paclitaxel) [nM] | IC50, cell viability 72 h (AZD1390) [nM] | IC50, cell viability 72 h (Olaparib) [nM] | IC50, cell viability 72 h (Doxorubicin) [nM] | IC50, cell viability 72 h (AZD5991) [nM] | IC50, cell viability 72 h (Selumetinib) [nM] | IC50, cell viability 72 h (Venetoclax) [nM] | IC50, cell viability 72 h (SN-38) [nM] | IC50, cell viability 72 h (Gefitinib) [nM] | IC50, cell viability 72 h (AZD5153) [nM] | IC50, cell viability 72 h [1] [nM] | IC50, cell viability 72 h (Etoposide) [nM] | IC50, cell viability 72 h (Prexasertib) [nM] | IC50, cell viability 72 h (AZD0156) [nM] | IC50, cell viability 72 h (SRA737) [nM] | IC50, cell viability 72 h (Lapatinib) [nM] | IC50, cell viability 72 h (Taselisib) [nM] | IC50, cell viability 72 h (Trametinib) [nM] | IC50, cell viability 72 h (AZD2811) [nM] | IC50, cell viability 72 h (AZD1775) [nM] | IC50, cell viability 72 h (AZD4320) [nM] | IC50, cell viability 72 h (AZD5363) [nM] | IC50, cell viability 72 h (AZD6738) [nM] | IC50, cell viability 72 h (Carboplatin) [nM] | IC50, cell viability 72 h (5-Fluorouracil) [nM] | IC50, cell viability 72 h (Savolitinib) [nM] | IC50, cell viability 72 h (AZD8186) [nM] | IC50, cell viability 72 h (Crizotinib) [nM] | IC50, cell viability 72 h (Palbociclib) [nM] | IC50, cell viability 72 h (AZD7648) [nM] |
| --- | --- | --- | --- | --- | --- | --- | --- | --- | --- | --- | --- | --- | --- | --- | --- | --- | --- | --- | --- | --- | --- | --- | --- | --- | --- | --- | --- | --- | --- | --- | --- | --- | --- | --- | --- |
| HCC70 (Breast Carcinoma) | > 2000 | > 300 | > 10000 | > 1 | 1920 | 143 | > 300 | > 10000 | > 1000 | 201 | > 10000 | > 1000 | > 300 | > 10000 | > 1000 | > 5000 | > 10000 | 29.7 | > 3000 | 5460 | > 10000 | 4260 | > 1000 | 224 | 1000 | > 1000 | 2000 | 3000 | > 10000 | > 20000 | > 1000 | 2020 | > 10000 | > 10000 | > 10000 |
| HCC1395 (Breast Carcinoma) | > 2000 | > 300 | > 10000 | > 1 | > 10000 | 206 | > 300 | > 10000 | > 1000 | > 1000 | > 10000 | > 1000 | 173 | > 10000 | > 1000 | > 5000 | > 10000 | 9.08 | > 3000 | 2950 | > 10000 | > 10000 | > 1000 | > 1000 | 965 | > 1000 | > 10000 | 2790 | > 10000 | > 20000 | > 1000 | > 10000 | > 10000 | > 10000 | > 10000 |
| IM-9 (Non-Cancerous) | > 2000 | 1.97 | 26.5 | > 1 | > 10000 | 4.97 | > 300 | > 10000 | 52.8 | 667 | 218 | > 1000 | 2.53 | > 10000 | 89.4 | 72.7 | 97.4 | 12.4 | > 3000 | 1520 | 7530 | > 10000 | 6.11 | 71.3 | 205 | 769 | 6700 | 1040 | > 10000 | 5020 | > 1000 | > 10000 | 819 | 4920 | > 10000 |
| JHH-2 (Hepatocellular Carcinoma) | 188 | > 300 | > 10000 | > 1 | 5260 | 365 | > 300 | > 10000 | > 1000 | > 1000 | > 10000 | > 1000 | 77.6 | > 10000 | > 1000 | 3440 | > 10000 | 57.5 | > 3000 | > 10000 | > 10000 | 3050 | 181 | > 1000 | 1860 | > 1000 | 4770 | 6800 | > 10000 | > 20000 | > 1000 | 297 | > 10000 | > 10000 | > 10000 |

— the supplement of paper PMC11061612
